The values that follow come from ChEMBL document CHEMBL1136528, “Novel pyrrolyllactone and pyrrolyllactam indolinones as potent cyclin-dependent kinase 2 inhibitors” (Bioorg Med Chem Lett, 2003).

Molecules are shown by their SMILES.

The target in assay [1] is Platelet-derived growth factor receptor beta (Homo sapiens, UniProt P09619). Briefly: Inhibitory activity was tested against Platelet-derived growth factor receptor beta.
Assay [2] deals with Vascular endothelial growth factor receptor 2 (Homo sapiens, UniProt P35968). As to the kind of experiment: Inhibitory activity was tested against FLK kinase.
The target in assay [3] is Cyclin-dependent kinase 2 (Homo sapiens, UniProt P24941). As to the kind of experiment: Inhibitory activity against Cyclin-dependent kinase 2.
Assay [4] has as its target Proto-oncogene tyrosine-protein kinase Src (Homo sapiens, UniProt P12931). As to the kind of experiment: Inhibitory activity was tested against Src protein tyrosine kinase.

Sequence of Proto-oncogene tyrosine-protein kinase Src (P12931 2-536 limits assumed): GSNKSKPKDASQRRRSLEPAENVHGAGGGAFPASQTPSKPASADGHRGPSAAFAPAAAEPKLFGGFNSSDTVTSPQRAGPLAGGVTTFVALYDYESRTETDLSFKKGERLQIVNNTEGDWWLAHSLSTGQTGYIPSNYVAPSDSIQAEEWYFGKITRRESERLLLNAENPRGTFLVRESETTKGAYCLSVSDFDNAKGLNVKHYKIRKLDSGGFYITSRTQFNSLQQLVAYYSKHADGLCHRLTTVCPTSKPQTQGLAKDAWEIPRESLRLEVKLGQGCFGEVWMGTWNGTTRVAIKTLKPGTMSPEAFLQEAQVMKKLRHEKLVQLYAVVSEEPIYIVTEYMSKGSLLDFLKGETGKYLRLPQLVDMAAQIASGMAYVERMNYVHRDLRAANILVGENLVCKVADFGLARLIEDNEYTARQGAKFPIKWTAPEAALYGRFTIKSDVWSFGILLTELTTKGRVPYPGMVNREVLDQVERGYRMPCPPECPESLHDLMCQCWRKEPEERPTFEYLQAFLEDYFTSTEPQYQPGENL
Sequence of Vascular endothelial growth factor receptor 2 (P35968 whole entry): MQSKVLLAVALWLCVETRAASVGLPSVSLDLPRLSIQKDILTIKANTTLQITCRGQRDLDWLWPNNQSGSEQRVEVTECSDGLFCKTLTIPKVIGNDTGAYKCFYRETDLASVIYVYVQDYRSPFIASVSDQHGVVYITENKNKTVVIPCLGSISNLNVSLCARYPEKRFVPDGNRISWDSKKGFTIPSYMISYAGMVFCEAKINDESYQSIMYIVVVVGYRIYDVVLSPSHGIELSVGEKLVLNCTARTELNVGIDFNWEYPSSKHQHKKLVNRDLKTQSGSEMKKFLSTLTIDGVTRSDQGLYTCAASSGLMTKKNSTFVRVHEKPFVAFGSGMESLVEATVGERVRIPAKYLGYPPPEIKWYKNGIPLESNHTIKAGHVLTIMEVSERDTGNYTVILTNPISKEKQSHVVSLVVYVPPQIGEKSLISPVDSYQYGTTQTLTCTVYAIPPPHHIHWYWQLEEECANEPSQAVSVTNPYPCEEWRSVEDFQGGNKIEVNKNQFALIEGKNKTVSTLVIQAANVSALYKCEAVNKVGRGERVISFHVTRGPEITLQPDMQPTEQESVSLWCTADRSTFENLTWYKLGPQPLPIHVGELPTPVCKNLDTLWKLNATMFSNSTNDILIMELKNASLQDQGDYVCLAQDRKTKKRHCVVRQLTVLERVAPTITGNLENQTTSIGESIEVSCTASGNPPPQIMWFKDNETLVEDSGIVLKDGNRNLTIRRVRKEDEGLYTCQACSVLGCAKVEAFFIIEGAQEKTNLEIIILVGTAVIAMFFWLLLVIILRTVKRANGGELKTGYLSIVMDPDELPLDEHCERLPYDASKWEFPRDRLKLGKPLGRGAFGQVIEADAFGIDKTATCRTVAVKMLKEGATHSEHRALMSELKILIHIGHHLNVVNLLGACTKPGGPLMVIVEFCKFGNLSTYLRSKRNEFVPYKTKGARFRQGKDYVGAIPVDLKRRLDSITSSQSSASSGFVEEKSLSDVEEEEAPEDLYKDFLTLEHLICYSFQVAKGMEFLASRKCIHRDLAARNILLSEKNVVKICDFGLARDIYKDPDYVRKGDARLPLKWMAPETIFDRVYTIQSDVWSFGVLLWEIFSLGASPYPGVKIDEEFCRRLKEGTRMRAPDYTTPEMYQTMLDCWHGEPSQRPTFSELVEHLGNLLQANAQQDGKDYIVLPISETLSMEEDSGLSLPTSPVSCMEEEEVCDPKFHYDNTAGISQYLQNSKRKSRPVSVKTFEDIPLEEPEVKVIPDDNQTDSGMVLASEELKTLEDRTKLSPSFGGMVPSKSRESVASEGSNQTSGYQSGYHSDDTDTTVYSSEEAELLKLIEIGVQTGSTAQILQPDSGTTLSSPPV
Sequence of Platelet-derived growth factor receptor beta (P09619 whole entry): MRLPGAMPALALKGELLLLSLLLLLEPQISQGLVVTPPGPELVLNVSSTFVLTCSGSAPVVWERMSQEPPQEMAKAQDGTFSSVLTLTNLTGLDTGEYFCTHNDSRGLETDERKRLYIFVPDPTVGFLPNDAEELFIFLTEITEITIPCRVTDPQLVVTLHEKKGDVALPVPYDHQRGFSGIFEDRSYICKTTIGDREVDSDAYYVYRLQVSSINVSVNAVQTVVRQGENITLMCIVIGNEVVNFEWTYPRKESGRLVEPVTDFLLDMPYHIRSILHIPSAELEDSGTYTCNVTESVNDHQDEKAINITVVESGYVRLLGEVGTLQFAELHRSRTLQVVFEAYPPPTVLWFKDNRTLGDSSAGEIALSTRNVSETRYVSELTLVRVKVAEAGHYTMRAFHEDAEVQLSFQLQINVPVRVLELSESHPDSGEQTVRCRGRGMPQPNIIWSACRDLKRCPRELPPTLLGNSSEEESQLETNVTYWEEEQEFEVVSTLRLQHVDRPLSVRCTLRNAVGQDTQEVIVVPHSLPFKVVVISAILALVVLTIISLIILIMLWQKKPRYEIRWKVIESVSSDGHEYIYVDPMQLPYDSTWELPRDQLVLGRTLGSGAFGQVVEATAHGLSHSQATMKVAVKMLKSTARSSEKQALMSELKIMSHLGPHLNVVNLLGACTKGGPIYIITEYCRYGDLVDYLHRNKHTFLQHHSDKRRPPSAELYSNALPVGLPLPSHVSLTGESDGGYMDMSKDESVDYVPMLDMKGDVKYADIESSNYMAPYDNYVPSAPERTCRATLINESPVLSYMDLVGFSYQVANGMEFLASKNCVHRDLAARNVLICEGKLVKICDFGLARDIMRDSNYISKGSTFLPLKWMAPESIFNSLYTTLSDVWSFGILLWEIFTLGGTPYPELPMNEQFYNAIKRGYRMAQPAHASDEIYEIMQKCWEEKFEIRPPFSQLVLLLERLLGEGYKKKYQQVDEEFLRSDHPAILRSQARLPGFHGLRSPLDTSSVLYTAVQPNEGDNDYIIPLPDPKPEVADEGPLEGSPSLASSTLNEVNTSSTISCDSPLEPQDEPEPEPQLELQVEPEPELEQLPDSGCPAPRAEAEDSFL

On to `O=C1Nc2ccc(Br)cc2/C1=C/c1[nH]cc2c1CCOC2=O`, for which the IC50 (as a rule, the concentration that inhibits the measured activity by half) is 18000 nM in assay [1], 11000 nM in assay [2], 190 nM in assay [3] and greater than 20000 nM in assay [4].

As to `O=C1Nc2ccc(C(=O)O)cc2/C1=C/c1[nH]cc2c1CCOC2=O`, the IC50 in assay [1] was greater than 20000 nM; in assay [2] it was 6200 nM; in assay [3], 4 nM; in assay [4], greater than 20000 nM.

`O=C1Nc2ccc(F)cc2/C1=C/c1[nH]cc2c1CCNC2=O` returned an IC50 in assay [3] of 300 nM.

Regarding `CNS(=O)(=O)c1ccc2c(c1)/C(=C/c1[nH]cc3c1CCNC3=O)C(=O)N2`, 9 nM corresponded to half-maximal inhibition in assay [3] (IC50).

For the compound `CC(C)NS(=O)(=O)c1ccc2c(c1)/C(=C/c1[nH]cc3c1CCOC3=O)C(=O)N2`, the IC50 in assay [1] was greater than 20000 nM; in assay [2], 6700 nM; in assay [3], 64 nM; in assay [4], greater than 20000 nM.

As to `COc1ccc2c(c1)/C(=C/c1[nH]cc3c1CCOC3=O)C(=O)N2`, the IC50 is greater than 20000 nM in assay [1], greater than 20000 nM in assay [2], 40 nM in assay [3] and greater than 20000 nM in assay [4].

For the compound `O=C1Nc2ccc(Cl)cc2/C1=C/c1[nH]cc2c1CCOC2=O`, the IC50 is 2100 nM in assay [1], greater than 20000 nM in assay [2], 88 nM in assay [3] and greater than 20000 nM in assay [4].

On to `COc1ccc2c(c1)/C(=C/c1[nH]cc3c1CCNC3=O)C(=O)N2`, for which the IC50 in assay [3] was determined as 250 nM.

Consider `O=C1Nc2cc(-c3ccccc3)ccc2/C1=C/c1[nH]cc2c1CCOC2=O`, for which the IC50 in assay [1] is 1100 nM; in assay [2], 2000 nM; in assay [3], greater than 10000 nM; in assay [4], 8400 nM.

For the compound `NS(=O)(=O)c1ccc2c(c1)/C(=C/c1[nH]cc3c1CCOC3=O)C(=O)N2`, the IC50 was greater than 20000 nM in assay [1], 6600 nM in assay [2], 12 nM in assay [3] and 13000 nM in assay [4].

`O=C1Nc2cccc(CCO)c2/C1=C/c1[nH]cc2c1CCNC2=O` displayed an IC50 in assay [3] of 340 nM.

For `CN(C)S(=O)(=O)c1ccc2c(c1)/C(=C/c1[nH]cc3c1CCOC3=O)C(=O)N2`, the IC50 in assay [1] is greater than 20000 nM; in assay [2], greater than 20000 nM; in assay [3] it was 33 nM; in assay [4], greater than 20000 nM.

Regarding `O=C1Nc2cc(-c3ccccc3)ccc2/C1=C/c1[nH]cc2c1CCNC2=O`, half-maximal inhibition in assay [3] (IC50) was put at 5700 nM.

In the case of `Cc1cccc2c1/C(=C/c1[nH]cc3c1CCOC3=O)C(=O)N2`, the IC50 in assay [1] is greater than 20000 nM; in assay [2] it was greater than 20000 nM; in assay [3], 270 nM; in assay [4], greater than 20000 nM.

In the case of `O=C1Nc2ccc(Br)cc2/C1=C/c1[nH]cc2c1CCNC2=O`, the IC50 in assay [3] came out at 530 nM.

For the compound `CN(C)S(=O)(=O)c1ccc2c(c1)/C(=C/c1[nH]cc3c1CCNC3=O)C(=O)N2`, in assay [3], it took 68 nM to reach half-maximal inhibition (IC50).

As for `O=C1Nc2cccc(C3CCNCC3)c2/C1=C/c1[nH]cc2c1CCOC2=O`, the half-inhibitory concentration (IC50) in assay [1] was found to be 1100 nM; in assay [2] it was 490 nM; in assay [3] it was 9 nM; in assay [4], 1100 nM.

`O=C1Nc2cccc(C3CCNCC3)c2/C1=C/c1[nH]cc2c1CCNC2=O` showed an IC50 in assay [3] of 49 nM.

In the case of `O=C1Nc2cccc(CCO)c2/C1=C/c1[nH]cc2c1CCOC2=O`, the IC50 in assay [1] was greater than 20000 nM; in assay [2], 1200 nM; in assay [3], 30 nM; in assay [4], greater than 20000 nM.

Take `COc1ccc2c(c1)NC(=O)/C2=C\c1[nH]cc2c1CCOC2=O`: the IC50 is 1400 nM in assay [1], greater than 20000 nM in assay [2], 1500 nM in assay [3] and greater than 20000 nM in assay [4].

In the case of `O=C1Nc2ccc(F)cc2/C1=C/c1[nH]cc2c1CCOC2=O`, the IC50 was greater than 20000 nM in assay [1], 10000 nM in assay [2], 82 nM in assay [3] and greater than 20000 nM in assay [4].

For `CNS(=O)(=O)c1ccc2c(c1)/C(=C/c1[nH]cc3c1CCOC3=O)C(=O)N2`, the IC50 was greater than 20000 nM in assay [1], 6600 nM in assay [2], 4 nM in assay [3] and greater than 20000 nM in assay [4].

`O=C1Nc2ccc(C(=O)O)cc2/C1=C/c1[nH]cc2c1CCNC2=O` returned a 50% inhibitory concentration (IC50) in assay [3] of 68 nM.
